In paper PMC7719162, “Positioning of an unprecedented spiro[5.5]undeca ring system into kinase inhibitor space” (Scientific Reports, 2020):
Like-named read-outs stand apart in the source and are kept apart here.

What was measured:
MST3/STK24 = target: T1, MST3/STK24 (Homo sapiens, UniProt Q9Y6E0); conditions: cited from earlier work
T1 construct: purchased Reaction Biology Corp

GSK3b = target: T2, GSK3b (Homo sapiens, UniProt P49841); conditions: cited from earlier work
T2 construct: purchased Reaction Biology Corp

CDK1/cyclin B = target: T3, CDK1/cyclin B (Homo sapiens, UniProt P06493); conditions: cited from earlier work
T3 construct: purchased Reaction Biology Corp

JNK1 = target: T4, JNK1 (Homo sapiens, UniProt P45983); conditions: cited from earlier work
T4 construct: purchased Reaction Biology Corp

CDK3/cyclin E = target: T5, CDK3/cyclin E (Homo sapiens, UniProt Q00526); test: Kinase panel assay (radiolabelled); assay type: biochemical; conditions: ATP 10 μM
T5 construct: purchased Reaction Biology Corp
T5 sequence (Q00526 whole entry): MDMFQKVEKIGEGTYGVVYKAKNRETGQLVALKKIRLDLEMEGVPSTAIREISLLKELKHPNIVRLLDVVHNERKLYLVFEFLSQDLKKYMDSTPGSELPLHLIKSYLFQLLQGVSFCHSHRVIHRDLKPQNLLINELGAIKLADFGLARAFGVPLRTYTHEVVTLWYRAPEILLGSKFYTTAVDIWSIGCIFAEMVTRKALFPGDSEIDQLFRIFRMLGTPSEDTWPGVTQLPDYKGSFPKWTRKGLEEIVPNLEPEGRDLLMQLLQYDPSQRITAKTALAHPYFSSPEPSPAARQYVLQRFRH
T5 sequence (P24864 whole entry partner): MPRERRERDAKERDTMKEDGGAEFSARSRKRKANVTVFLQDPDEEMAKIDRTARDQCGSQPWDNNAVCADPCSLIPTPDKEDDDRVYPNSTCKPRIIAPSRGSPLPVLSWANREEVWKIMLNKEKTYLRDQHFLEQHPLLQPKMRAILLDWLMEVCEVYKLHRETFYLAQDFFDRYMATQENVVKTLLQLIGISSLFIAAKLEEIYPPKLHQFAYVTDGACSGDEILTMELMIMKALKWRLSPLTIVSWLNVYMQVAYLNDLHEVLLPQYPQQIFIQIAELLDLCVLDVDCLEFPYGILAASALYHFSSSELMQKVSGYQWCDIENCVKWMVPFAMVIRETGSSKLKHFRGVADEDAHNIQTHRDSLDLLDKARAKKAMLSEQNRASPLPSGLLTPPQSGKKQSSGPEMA

PI3Kd (p110d/p85a) = target: T6, PI3Kd (p110d/p85a) (Homo sapiens, UniProt O00329); test: Kinase panel assay (lipid kinase); assay type: biochemical; conditions: 30 μM compound, ATP 10 μM, duplicates Data 1/Data 2
T6 construct: purchased Reaction Biology Corp

EEF2K = target: T7, EEF2K (Homo sapiens, UniProt O00418); test: Kinase panel assay (radiolabelled); assay type: biochemical; conditions: 30 μM compound, ATP 10 μM, duplicates Data 1/Data 2
T7 construct: purchased Reaction Biology Corp

AMPK(A2/B2/G3) = target: T8, AMPK(A2/B2/G3) (Homo sapiens, UniProt O43741+P54646+Q9UGI9); test: Kinase panel assay (radiolabelled); assay type: biochemical; conditions: 30 μM compound, ATP 10 μM; duplicates Data 1/Data 2; read-out: % Enzyme Activity (relative to DMSO controls)
T8 construct: purchased Reaction Biology Corp

AMPK(A1/B2/G1) [1] = target: T9, AMPK(A1/B2/G1) (Homo sapiens, UniProt O43741+P54619+Q13131); test: Kinase panel assay (radiolabelled); assay type: biochemical; conditions: 30 μM compound, ATP 10 μM; duplicates Data 1/Data 2; read-out: % Enzyme Activity (relative to DMSO controls)
T9 construct: purchased Reaction Biology Corp

AMPK(A1/B2/G1) [2] = target: T10, AMPK(A1/B2/G1) (Homo sapiens, UniProt Q13131); test: Kinase panel assay (radiolabelled); assay type: biochemical; conditions: 30 μM compound, ATP 10 μM; duplicates Data 1/Data 2
T10 construct: purchased Reaction Biology Corp

ROCK2 = target: T11, ROCK2 (Homo sapiens, UniProt O75116); test: Kinase panel assay (radiolabelled); assay type: biochemical; conditions: ATP 10 μM
T11 construct: purchased Reaction Biology Corp
T11 sequence (O75116 whole entry): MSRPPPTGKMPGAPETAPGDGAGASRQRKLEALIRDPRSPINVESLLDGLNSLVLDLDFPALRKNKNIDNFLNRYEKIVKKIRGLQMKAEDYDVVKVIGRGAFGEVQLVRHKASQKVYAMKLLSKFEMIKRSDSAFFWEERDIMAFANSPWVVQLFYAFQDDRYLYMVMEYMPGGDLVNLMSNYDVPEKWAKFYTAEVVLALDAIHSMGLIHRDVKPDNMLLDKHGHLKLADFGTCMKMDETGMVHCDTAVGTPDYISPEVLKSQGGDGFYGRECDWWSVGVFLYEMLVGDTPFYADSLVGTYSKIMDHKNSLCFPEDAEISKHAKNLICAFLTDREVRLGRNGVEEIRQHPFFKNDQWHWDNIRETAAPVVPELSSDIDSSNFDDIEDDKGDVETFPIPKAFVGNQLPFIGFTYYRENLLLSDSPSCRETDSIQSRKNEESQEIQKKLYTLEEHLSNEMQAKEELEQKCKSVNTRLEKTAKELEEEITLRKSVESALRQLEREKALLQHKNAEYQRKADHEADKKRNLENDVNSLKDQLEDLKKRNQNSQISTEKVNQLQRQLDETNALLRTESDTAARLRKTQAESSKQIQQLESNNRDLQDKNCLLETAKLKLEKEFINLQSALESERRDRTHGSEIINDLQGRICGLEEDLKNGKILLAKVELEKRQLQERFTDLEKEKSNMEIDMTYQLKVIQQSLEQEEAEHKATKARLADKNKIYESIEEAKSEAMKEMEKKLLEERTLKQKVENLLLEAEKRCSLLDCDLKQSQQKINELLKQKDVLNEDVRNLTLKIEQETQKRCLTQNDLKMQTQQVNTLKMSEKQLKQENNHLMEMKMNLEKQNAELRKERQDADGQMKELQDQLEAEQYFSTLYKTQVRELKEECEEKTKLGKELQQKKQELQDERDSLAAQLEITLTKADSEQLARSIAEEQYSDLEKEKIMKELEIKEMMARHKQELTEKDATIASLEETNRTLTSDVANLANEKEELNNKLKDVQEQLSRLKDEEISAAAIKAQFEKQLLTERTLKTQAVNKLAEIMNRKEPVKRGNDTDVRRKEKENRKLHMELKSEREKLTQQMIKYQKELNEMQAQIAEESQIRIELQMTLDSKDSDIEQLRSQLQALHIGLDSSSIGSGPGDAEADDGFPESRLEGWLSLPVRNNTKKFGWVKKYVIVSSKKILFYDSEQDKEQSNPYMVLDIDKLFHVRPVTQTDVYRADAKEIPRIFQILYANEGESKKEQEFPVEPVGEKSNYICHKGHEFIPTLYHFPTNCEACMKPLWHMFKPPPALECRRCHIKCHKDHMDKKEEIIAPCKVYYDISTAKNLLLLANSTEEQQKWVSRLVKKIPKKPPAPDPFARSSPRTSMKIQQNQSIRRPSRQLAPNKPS

TRKB = target: T12, TRKB (Homo sapiens, UniProt Q16620); test: Kinase panel assay (radiolabelled); assay type: biochemical; conditions: ATP 10 μM
T12 construct: purchased Reaction Biology Corp
T12 sequence (Q16620 32-822): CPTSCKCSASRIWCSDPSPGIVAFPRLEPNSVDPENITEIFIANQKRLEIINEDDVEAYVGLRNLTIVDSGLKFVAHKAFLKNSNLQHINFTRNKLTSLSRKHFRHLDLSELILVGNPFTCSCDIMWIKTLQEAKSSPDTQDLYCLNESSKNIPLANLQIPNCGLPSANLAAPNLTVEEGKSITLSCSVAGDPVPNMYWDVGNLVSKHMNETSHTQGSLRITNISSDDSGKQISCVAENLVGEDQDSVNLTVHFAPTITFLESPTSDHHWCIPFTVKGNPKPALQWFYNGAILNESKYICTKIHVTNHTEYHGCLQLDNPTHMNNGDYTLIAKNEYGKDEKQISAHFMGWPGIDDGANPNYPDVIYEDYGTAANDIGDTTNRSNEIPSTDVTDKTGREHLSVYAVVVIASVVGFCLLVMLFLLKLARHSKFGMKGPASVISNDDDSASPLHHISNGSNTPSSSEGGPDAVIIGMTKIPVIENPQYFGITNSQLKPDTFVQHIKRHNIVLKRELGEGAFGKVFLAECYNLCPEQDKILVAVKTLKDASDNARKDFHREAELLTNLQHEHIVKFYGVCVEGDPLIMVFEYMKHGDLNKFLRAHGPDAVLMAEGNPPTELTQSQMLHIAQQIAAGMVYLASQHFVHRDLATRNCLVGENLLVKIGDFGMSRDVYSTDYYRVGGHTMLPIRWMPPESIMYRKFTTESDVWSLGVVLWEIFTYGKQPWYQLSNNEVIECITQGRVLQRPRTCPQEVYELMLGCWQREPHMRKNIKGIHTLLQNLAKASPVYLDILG

TRKC (L686M) = target: T13, TRKC (L686M) (Homo sapiens, UniProt Q16288, L686M); test: Kinase panel assay (radiolabelled); assay type: biochemical; conditions: 30 μM compound, ATP 10 μM, duplicates Data 1/Data 2
T13 construct: purchased Reaction Biology Corp

DAPK1 = target: T14, DAPK1 (Homo sapiens, UniProt P53355); test: Kinase panel assay (radiolabelled); assay type: biochemical; conditions: ATP 10 μM
T14 construct: purchased Reaction Biology Corp
T14 sequence (P53355 whole entry): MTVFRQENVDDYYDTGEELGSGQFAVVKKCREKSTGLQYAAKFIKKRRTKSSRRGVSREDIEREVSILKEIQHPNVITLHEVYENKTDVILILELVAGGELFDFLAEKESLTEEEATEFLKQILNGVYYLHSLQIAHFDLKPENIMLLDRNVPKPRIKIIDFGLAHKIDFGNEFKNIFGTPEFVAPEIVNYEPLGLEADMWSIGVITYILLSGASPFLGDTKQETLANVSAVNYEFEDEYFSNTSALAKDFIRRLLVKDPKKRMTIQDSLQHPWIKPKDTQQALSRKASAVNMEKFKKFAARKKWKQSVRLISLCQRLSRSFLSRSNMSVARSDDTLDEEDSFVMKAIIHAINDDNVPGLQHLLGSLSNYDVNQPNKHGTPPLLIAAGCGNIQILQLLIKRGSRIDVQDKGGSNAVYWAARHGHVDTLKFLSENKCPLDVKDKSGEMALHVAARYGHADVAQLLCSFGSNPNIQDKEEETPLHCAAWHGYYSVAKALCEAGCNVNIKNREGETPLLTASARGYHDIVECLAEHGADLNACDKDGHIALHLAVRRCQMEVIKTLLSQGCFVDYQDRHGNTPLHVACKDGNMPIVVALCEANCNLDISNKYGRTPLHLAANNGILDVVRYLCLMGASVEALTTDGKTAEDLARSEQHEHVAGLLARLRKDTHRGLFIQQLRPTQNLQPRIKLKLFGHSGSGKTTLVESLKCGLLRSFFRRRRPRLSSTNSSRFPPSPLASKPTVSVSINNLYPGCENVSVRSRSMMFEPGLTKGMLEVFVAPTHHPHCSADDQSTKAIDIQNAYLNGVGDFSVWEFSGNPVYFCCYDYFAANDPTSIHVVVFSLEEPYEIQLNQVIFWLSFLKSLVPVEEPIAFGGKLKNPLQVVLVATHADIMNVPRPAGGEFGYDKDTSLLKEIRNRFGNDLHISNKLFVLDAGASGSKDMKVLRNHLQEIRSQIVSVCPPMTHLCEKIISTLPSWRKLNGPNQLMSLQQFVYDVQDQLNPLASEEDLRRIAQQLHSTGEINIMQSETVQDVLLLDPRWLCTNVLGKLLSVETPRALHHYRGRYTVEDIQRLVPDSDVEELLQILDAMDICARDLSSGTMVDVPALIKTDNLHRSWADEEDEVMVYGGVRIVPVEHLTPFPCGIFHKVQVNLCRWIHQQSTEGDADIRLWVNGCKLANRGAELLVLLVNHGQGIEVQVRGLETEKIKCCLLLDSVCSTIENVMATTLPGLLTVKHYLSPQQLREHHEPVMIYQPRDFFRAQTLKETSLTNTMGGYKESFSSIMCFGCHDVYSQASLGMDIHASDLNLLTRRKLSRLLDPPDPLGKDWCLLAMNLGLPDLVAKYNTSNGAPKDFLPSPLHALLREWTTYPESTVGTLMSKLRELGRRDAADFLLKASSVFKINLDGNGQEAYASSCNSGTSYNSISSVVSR

PI3Kb (p110b/p85a) = target: T15, PI3Kb (p110b/p85a) (Homo sapiens, UniProt P42338); test: Kinase panel assay (lipid kinase); assay type: biochemical; conditions: 30 μM compound, ATP 10 μM, duplicates Data 1/Data 2
T15 construct: purchased Reaction Biology Corp

JNK3 = target: T16, JNK3 (Homo sapiens, UniProt P53779); test: Kinase panel assay (radiolabelled); assay type: biochemical; conditions: ATP 10 μM
T16 construct: purchased Reaction Biology Corp

TNF-α = test: Secreted TNF-α ELISA in LPS-induced BV-2 cells; assay type: cell-based, murine
Procedure: To evaluate the secreted level of Prostaglandin E2 (PGE2), Tumor necrosis factor (TNF-α), Interleukin (IL-6), Interleukin (IL-1β), BV2 cells were seeded in a 6 well plate at the density of 1.5 × 10^6 cells/well in DMEM and incubated for 24 h. Seeded cells sere pretreated and, activated with LPS for next 24 h. conditioned medium from treated cells were collected and stored at -80 degree for longer period of time. The amount of TNF-α, IL-1β, PGE2,and IL-6 were evaluated using the competitive enzyme immunoassay kit. PGE2 kit were obtained from (Cayman Chemical, Ann Arbor, MI, USA) and TNF-α, IL-1β, and IL-6 were measured using ELISA development kits (R&D Systems, Minneapolis, MN, USA). All the protocol was exactly followed as written in the manual.

CDK2/cyclin O = target: T17, CDK2/cyclin O (Homo sapiens, UniProt P24941); test: Kinase panel assay (radiolabelled); assay type: biochemical; conditions: ATP 10 μM
T17 construct: purchased Reaction Biology Corp

AMPK(A1/B1/G2) [3] = target: T18, AMPK(A1/B1/G2) (Homo sapiens, UniProt Q13131); test: Kinase panel assay (radiolabelled); assay type: biochemical; conditions: 30 μM compound, ATP 10 μM; duplicates Data 1/Data 2
T18 construct: purchased Reaction Biology Corp

AMPK(A1/B1/G2) [4] = target: T19, AMPK(A1/B1/G2) (Homo sapiens, UniProt Q13131+Q9UGJ0+Q9Y478); test: Kinase panel assay (radiolabelled); assay type: biochemical; conditions: 30 μM compound, ATP 10 μM; duplicates Data 1/Data 2; read-out: % Enzyme Activity (relative to DMSO controls)
T19 construct: purchased Reaction Biology Corp

TRKA-TPR = TRKA-TPR (Homo sapiens, UniProt P04629); test: biochemical; conditions: 30 μM compound, ATP 10 μM, duplicates Data 1/Data 2
TRKA (G667C) = target: T20, TRKA (G667C) (Homo sapiens, UniProt P04629, G667C); test: Kinase panel assay (radiolabelled); assay type: biochemical; conditions: 30 μM compound, ATP 10 μM, duplicates Data 1/Data 2
T20 construct: purchased Reaction Biology Corp

DAPK2 = target: T21, DAPK2 (Homo sapiens, UniProt Q9UIK4); test: Kinase panel assay (radiolabelled); assay type: biochemical; conditions: ATP 10 μM
T21 construct: purchased Reaction Biology Corp
T21 sequence (Q9UIK4 whole entry): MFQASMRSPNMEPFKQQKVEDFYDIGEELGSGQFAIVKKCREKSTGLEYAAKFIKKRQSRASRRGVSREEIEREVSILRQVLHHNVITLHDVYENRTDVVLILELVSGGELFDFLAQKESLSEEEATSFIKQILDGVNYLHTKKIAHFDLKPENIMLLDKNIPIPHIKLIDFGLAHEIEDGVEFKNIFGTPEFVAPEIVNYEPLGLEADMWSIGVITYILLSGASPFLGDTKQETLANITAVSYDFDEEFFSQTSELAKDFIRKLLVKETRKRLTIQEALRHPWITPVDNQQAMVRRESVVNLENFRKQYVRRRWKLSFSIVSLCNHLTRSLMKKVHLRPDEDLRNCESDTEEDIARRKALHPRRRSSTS

SPHK1 = target: T22, SPHK1 (Homo sapiens, UniProt Q9NYA1); test: Kinase panel assay (lipid kinase); assay type: biochemical; conditions: 30 μM compound, ATP 10 μM, duplicates Data 1/Data 2
T22 construct: purchased Reaction Biology Corp
T22 sequence (Q9NYA1 whole entry): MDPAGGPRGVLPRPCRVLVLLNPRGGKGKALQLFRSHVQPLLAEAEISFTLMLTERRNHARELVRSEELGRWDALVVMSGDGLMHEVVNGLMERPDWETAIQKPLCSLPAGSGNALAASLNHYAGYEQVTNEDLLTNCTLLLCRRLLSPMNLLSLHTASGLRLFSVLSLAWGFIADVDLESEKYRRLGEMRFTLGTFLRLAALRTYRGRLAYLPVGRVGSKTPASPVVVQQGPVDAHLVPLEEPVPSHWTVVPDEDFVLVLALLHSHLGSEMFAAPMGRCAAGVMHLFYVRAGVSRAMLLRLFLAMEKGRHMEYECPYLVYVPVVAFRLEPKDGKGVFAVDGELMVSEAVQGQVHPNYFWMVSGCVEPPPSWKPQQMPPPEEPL

TRKC (G623R/L686M) = target: T23, TRKC (G623R/L686M) (Homo sapiens, UniProt Q16288, G623R/L686M); test: Kinase panel assay (radiolabelled); assay type: biochemical; conditions: 30 μM compound, ATP 10 μM, duplicates Data 1/Data 2
T23 construct: purchased Reaction Biology Corp

TRKC (G623R) = target: T24, TRKC (G623R) (Homo sapiens, UniProt Q16288, G623R); test: Kinase panel assay (radiolabelled); assay type: biochemical; conditions: 30 μM compound, ATP 10 μM, duplicates Data 1/Data 2
T24 construct: purchased Reaction Biology Corp

AMPK(A2/B2/G1) [5] = target: T25, AMPK(A2/B2/G1) (Homo sapiens, UniProt O43741+P54619+P54646); test: Kinase panel assay (radiolabelled); assay type: biochemical; conditions: 30 μM compound, ATP 10 μM; duplicates Data 1/Data 2; read-out: % Enzyme Activity (relative to DMSO controls)
T25 construct: purchased Reaction Biology Corp

AMPK(A2/B2/G1) [6] = target: T26, AMPK(A2/B2/G1) (Homo sapiens, UniProt P54646); test: Kinase panel assay (radiolabelled); assay type: biochemical; conditions: 30 μM compound, ATP 10 μM; duplicates Data 1/Data 2
T26 construct: purchased Reaction Biology Corp

PI4Kb = target: T27, PI4Kb (Homo sapiens, UniProt Q9UBF8); test: Kinase panel assay (lipid kinase); assay type: biochemical; conditions: 30 μM compound, ATP 10 μM, duplicates Data 1/Data 2
T27 construct: purchased Reaction Biology Corp

PI3Ka (p110a/p85a) = target: T28, PI3Ka (p110a/p85a) (Homo sapiens, UniProt P42336); test: Kinase panel assay (lipid kinase); assay type: biochemical; conditions: 30 μM compound, ATP 10 μM, duplicates Data 1/Data 2
T28 construct: purchased Reaction Biology Corp

[7] = 30 μM compound, duplicates Data 1/Data 2
[8] = 30 μM compound, duplicates Data 1/Data 2, read-out: % Enzyme Activity (relative to DMSO controls)
[9] = 30 μM, average ± SD, read-out: % Residual Activity at 30 μM
[10] = read-out: % Enzyme Activity (relative to DMSO controls)

In the case of `O=C1C=CC2(C=C1)OCC(Cc1cc(C(F)(F)F)cc(C(F)(F)F)c1)C(=O)N2c1ccccc1` (racemic) [1c], the “% Residual Activity at 30 μM” value (MST3/STK24) is listed as 58.3 ± 0.7%, the “inhibitory activity on GSK-3β” value (GSK3b; 30 μM) is listed as “did not show any inhibitory activity” and the “% Residual Activity at 30 μM” value (GSK3b) is listed as 107.5 ± 1.9%. For the same compound, the “% Residual Activity at 30 μM” value (CDK1/cyclin B) was 46.0 ± 0.8% and the “% Residual Activity at 30 μM” value (JNK1) was 35.8 ± 0.3%.

In the case of `O=C1C=CC2(C=C1)OCC(Cc1cn(-c3cccc(Cl)c3)nn1)C(=O)N2c1ccccc1` (centres unmarked) [2d, 3-((1-(3-Chlorophenyl)-1H-1,2,3-triazol-4-yl)methyl)-5-phenyl-1-oxa-5-azaspiro[5.5]undeca-7,10-diene-4,9-dione], the “% Enzyme Activity (relative to DMSO controls)” value (CDK3/cyclin E; [7]) is reported as 59.02%, the remaining activity at 30 µM (CDK3/cyclin E; [8]) is reported as 61.6% and the remaining activity at 30 µM (CDK3/cyclin E; [9]) is reported as 60.3 ± 1.9%. The “% Enzyme Activity (relative to DMSO controls)” value (PI3Kd (p110d/p85a)) was 108.46%, the remaining activity at 30 µM (PI3Kd (p110d/p85a); [10]) was 109% and the “% Enzyme Activity (relative to DMSO controls)” value (EEF2K) was 101.96%. It also gave a remaining activity at 30 µM (EEF2K; [10]) of 103%, a remaining activity at 30 µM (AMPK(A2/B2/G3)) of 95.8% and a remaining activity at 30 µM (AMPK(A1/B2/G1) [1]) of 110%. For the same compound, the “% Enzyme Activity (relative to DMSO controls)” value (AMPK(A1/B2/G1) [2]) was 107.43%, the “% Enzyme Activity (relative to DMSO controls)” value (ROCK2; [7]) was 98.38% and the remaining activity at 30 µM (ROCK2; [8]) was 100%. The remaining activity at 30 µM (ROCK2; [9]) was 99.4 ± 1.5%, the “% Enzyme Activity (relative to DMSO controls)” value (TRKB; [7]) was 101.29% and the remaining activity at 30 µM (TRKB; [8]) was 103%. For the same compound, the remaining activity at 30 µM (TRKB; [9]) was 102 ± 1.3%, the “% Enzyme Activity (relative to DMSO controls)” value (TRKC (L686M)) was 106.77% and the remaining activity at 30 µM (TRKC (L686M); [10]) was 107%. For the same compound, the “% Enzyme Activity (relative to DMSO controls)” value (DAPK1; [7]) was 73.41%, the remaining activity at 30 µM (DAPK1; [8]) was 75.8% and the remaining activity at 30 µM (DAPK1; [9]) was 74.6 ± 1.7%. The “% Enzyme Activity (relative to DMSO controls)” value (PI3Kb (p110b/p85a)) was 86.58%, the remaining activity at 30 µM (PI3Kb (p110b/p85a); [10]) was 86.3% and the “% Enzyme Activity (relative to DMSO controls)” value (JNK3; [7]) was 95.42%. The remaining activity at 30 µM (JNK3; [8]) was 95.5%, the remaining activity at 30 µM (JNK3; [9]) was 95.4 ± 0.1% and the “TNF-α level” value (TNF-α) was “concentration-dependent manner”. The “% Enzyme Activity (relative to DMSO controls)” value (CDK2/cyclin O; [7]) was 54.15%, the remaining activity at 30 µM (CDK2/cyclin O; [8]) was 54.4% and the remaining activity at 30 µM (CDK2/cyclin O; [9]) was 54.3 ± 0.1%. For the same compound, the “% Enzyme Activity (relative to DMSO controls)” value (AMPK(A1/B1/G2) [3]) was 66.48%, the remaining activity at 30 µM (AMPK(A1/B1/G2) [4]) was 68% and the “% Enzyme Activity (relative to DMSO controls)” value (TRKA-TPR) was 101.99%. The remaining activity at 30 µM (TRKA-TPR; [10]) was 106%, the “% Enzyme Activity (relative to DMSO controls)” value (TRKA (G667C)) was 101.95% and the remaining activity at 30 µM (TRKA (G667C); [10]) was 103%. The “% Enzyme Activity (relative to DMSO controls)” value (DAPK2; [7]) was 109.81%, the remaining activity at 30 µM (DAPK2; [8]) was 111% and the remaining activity at 30 µM (DAPK2; [9]) was 110.2 ± 0.6%. The “% Enzyme Activity (relative to DMSO controls)” value (SPHK1) was 77.68%, the remaining activity at 30 µM (SPHK1; [10]) was 80.5% and the “% Enzyme Activity (relative to DMSO controls)” value (TRKC (G623R/L686M)) was 95.31%. For the same compound, the remaining activity at 30 µM (TRKC (G623R/L686M); [10]) was 96%, the “% Enzyme Activity (relative to DMSO controls)” value (TRKC (G623R)) was 90.32% and the remaining activity at 30 µM (TRKC (G623R); [10]) was 92.1%. For the same compound, the remaining activity at 30 µM (AMPK(A2/B2/G1) [5]) was 94%, the “% Enzyme Activity (relative to DMSO controls)” value (AMPK(A2/B2/G1) [6]) was 89.86% and the “% Enzyme Activity (relative to DMSO controls)” value (PI4Kb) was 81.00%. For the same compound, the remaining activity at 30 µM (PI4Kb; [10]) was 81.6%, the “% Enzyme Activity (relative to DMSO controls)” value (PI3Ka (p110a/p85a)) was 250.92% and the remaining activity at 30 µM (PI3Ka (p110a/p85a); [10]) was 252%.
